The target of the experiment is Heat shock 70 kDa protein 1A (Homo sapiens, UniProt V9GZ37). As to the kind of experiment: Hsp70 inhibitors, SAR follow-up, biochemical, fluorescence polarization (AID 1072). In general terms: Polarisation of emitted light reports the rotation of a fluorescent probe.

Structures are written as SMILES.

These results are taken from BindingDB's records for doi:10.7270/Q2S75DRW (Burnham Center For Chemical Genomics, 2008).

Sequence of Heat shock 70 kDa protein 1A (V9GZ37 whole entry): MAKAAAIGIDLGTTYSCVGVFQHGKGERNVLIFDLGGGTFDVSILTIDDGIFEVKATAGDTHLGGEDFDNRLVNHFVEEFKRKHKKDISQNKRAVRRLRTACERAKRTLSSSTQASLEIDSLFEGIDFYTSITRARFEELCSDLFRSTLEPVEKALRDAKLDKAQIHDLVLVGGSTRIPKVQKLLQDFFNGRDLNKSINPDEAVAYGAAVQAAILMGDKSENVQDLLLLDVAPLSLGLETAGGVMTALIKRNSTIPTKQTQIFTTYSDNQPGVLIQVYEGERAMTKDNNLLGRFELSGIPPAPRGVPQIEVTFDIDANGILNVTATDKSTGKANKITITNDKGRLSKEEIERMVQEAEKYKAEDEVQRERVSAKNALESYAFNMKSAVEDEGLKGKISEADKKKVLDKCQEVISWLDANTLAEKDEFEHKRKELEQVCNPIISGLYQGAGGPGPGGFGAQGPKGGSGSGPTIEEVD

Compound `O=C1C=C2CC3(O)CCc4c(ccc(O)c4O)C3=C2CC1=O` (stereo unspecified) [3,4,6a,10-tetrakis(oxidanyl)-6,7-dihydro-5H-benzo[g]fluoren-9-one] came in with an IC50 of 34.2 µM.

By IC50 is commonly meant the concentration that inhibits the measured activity by half.
